From patent publication US20090018210A1, “A Method for Promoting Fat Degradation” (YAMAHA HATSUDOKI KABUSHIKI KAISHA, priority 2007, published 2009)

Test system: Human subcutaneous adipocytes
Experiment: Promotion of fat degradation (lipolysis) in human adipocytes, free glycerol in culture supernatant
Type: cell-based
Conditions: 30 μM test substance, 3 hours incubation at 37° C., versus 1% (v/v) DMSO control; Lipolysis Assay Kit; FIG. 1
Protocol: Human subcutaneous adipocytes (Zen-Bio, Inc.) plated onto a 96-well plate was obtained and pre-cultivated under a 5% CO2 atmosphere at 37° C. for 5 days in D-MEM/Ham's F12 Medium (1:1, v/v) containing 3% (v/v) fetal bovine serum, 15 mM HEPES (pH 7.4), 33 μM biotin, 17 μM pantothenate, 100 nM human insulin, 1 μM dexamethasone, 100 U/mL penicillin, 100 μg/mL streptomycin and 0.25 μg/mL amphotericin B. Then, an astaxanthin free form (Wako Pure Chemical Industries, Ltd.: purity 94% or more) and the astaxanthin monoester obtained in Preparation Example 1 were dissolved in dimethyl sulfoxide (DMSO) to prepare stock solutions at a concentration of 3 mM, respectively. The stock solutions were diluted to 30 μM with LIP-2 Assay Buffer (Zen-Bio, Inc.) to prepare test solutions. As a control, 1% (v/v) DMSO solution which was diluted with LIP-2 Assay Buffer was used. Each of the wells was washed with Wash Buffer (Zen-Bio, Inc.) and the test solutions were added to the wells. These wells were incubated under a 5% CO2 atmosphere at 37° C. for 3 hours. After the incubation, the amount of free glycerol in the culture supernatant was measured using a Lipolysis Assay Kit (Zen-Bio, Inc.). […]

Row | Compound | percentage of fat degradation promoted, (A/B)×100(%), amount of free glycerol relative to control
1 | CC1=C(/C=C/C(C)=C/C=C/C(C)=C/C=C/C=C(C)/C=C/C=C(C)/C=C/C2=C(C)C(=O)[C@@H](O)CC2(C)C)C(C)(C)C[C@H](O)C1=O [astaxanthin] | significantly increased
2 | astaxanthin monoester | significantly increased
